The results in this text go back to ChEMBL document CHEMBL4393689, “Discovery of fluorescent coumarin-benzo[b]thiophene 1, 1-dioxide conjugates as mitochondria-targeting antitumor STAT3 inhibitors” (Eur J Med Chem, 2019).

Each structure is given as a SMILES string. Active and inactive are the calls of the source. No cut-off for these calls is given here.

A short description of data set [1]: Selectivity index, ratio of IC50 for human L02 cells to IC50 for human HepG2 cells. Type of data set: toxicity. The note with it: L02 cells versus HepG2 cells, read-out: Ratio IC50.
Data set [2] relates to MDA-MB-231. Put plainly: Induction of apoptosis in human MDA-MB-231 cells assessed as late apoptotic cells at 1 uM incubated for 24 hrs by annexinV-FITC and propidium iodide staining based flow cytometric analysis (reference value: 1.0%). Type of data set: functional. Background: In flow cytometry, cells or beads pass a laser one at a time.
The subject of data set [3] is MDA-MB-231. Nature of the data set: Induction of apoptosis in human MDA-MB-231 cells assessed as early apoptotic cells at 2 uM incubated for 24 hrs by annexinV-FITC and propidium iodide staining based flow cytometric analysis (reference value: 3.2%). Type of data set: functional.
The subject of data set [4] is MDA-MB-231. Put plainly: Induction of apoptosis in human MDA-MB-231 cells assessed as viable cells at 4 uM incubated for 24 hrs by annexinV-FITC and propidium iodide staining based flow cytometric analysis (reference value: 95.1%). Type of data set: functional. To be noted: MDA-MB-231, 24 h, read-out: Activity.
The test system of data set [5] is MDA-MB-231. Nature of the data set: Induction of apoptosis in human MDA-MB-231 cells assessed as early apoptotic cells at 4 uM incubated for 24 hrs by annexinV-FITC and propidium iodide staining based flow cytometric analysis (reference value: 3.2%). Type of data set: functional.
Data set [6] relates to MDA-MB-231. Nature of the data set: Induction of apoptosis in human MDA-MB-231 cells assessed as necrotic cells at 4 uM incubated for 24 hrs by annexinV-FITC and propidium iodide staining based flow cytometric analysis (reference value: 0.8%). The format is functional.
A short description of data set [7]: Drug accumulation in mitochondria of human MDA-MB-231 cells at 2 uM incubated for 60 mins by mitotracker red staining based confocal microscopy. To be noted: mda-mb-231, 1 h. Type of data set: ADME.
The target of data set [8] is T1, Signal transducer and activator of transcription 1-alpha/beta (Homo sapiens) (UniProt P42224).
T1 sequence (whole entry): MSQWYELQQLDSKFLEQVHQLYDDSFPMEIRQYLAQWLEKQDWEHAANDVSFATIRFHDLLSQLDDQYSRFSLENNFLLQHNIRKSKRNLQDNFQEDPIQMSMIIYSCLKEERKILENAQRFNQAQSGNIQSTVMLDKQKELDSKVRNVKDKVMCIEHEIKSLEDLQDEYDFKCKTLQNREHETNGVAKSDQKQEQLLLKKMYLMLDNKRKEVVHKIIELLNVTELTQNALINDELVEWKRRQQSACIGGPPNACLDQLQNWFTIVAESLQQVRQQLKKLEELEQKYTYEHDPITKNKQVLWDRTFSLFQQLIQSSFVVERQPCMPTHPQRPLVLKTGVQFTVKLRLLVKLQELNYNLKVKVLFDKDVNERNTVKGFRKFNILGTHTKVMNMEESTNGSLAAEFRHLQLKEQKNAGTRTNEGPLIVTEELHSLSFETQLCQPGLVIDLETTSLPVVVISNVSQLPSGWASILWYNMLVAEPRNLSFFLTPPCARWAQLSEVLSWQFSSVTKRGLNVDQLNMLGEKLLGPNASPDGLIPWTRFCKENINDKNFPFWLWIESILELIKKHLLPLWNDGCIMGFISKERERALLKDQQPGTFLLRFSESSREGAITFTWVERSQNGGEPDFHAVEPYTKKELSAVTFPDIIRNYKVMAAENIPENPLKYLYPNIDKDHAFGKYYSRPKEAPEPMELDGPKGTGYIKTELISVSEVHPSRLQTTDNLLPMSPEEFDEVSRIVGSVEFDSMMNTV
Nature of the data set: Inhibition of STAT1 in human MDA-MB-231 cells assessed as decrease in STAT1 phosphorylation at Y701 residue at 1 to 4 uM incubated for 24 hrs by Western blot analysis. Type of data set: cell-based. (In general: Immunoblotting shows a protein as a band on a membrane.)

Data set [9] has as its target Tyrosine-protein kinase JAK2 (Homo sapiens) (UniProt O60674). Nature of the data set: Inhibition of JAK2 in human MDA-MB-231 cells assessed as reduction in JAK2 phosphorylation at 1 to 4 uM incubated for 24 hrs by Western blot analysis. The format is cell-based.
Data set [10] concerns the target Proto-oncogene tyrosine-protein kinase Src (Homo sapiens) (UniProt P12931). Nature of the data set: Inhibition of Src in human MDA-MB-231 cells assessed as reduction in Src phosphorylation at 1 to 4 uM incubated for 24 hrs by Western blot analysis. The format is cell-based.
For data set [11], the target named is Mitogen-activated protein kinase; ERK1/ERK2 (Homo sapiens) (UniProt P27361+P28482). Nature of the data set: Inhibition of ERK 1/2 in human MDA-MB-231 cells assessed as reduction in ERK 1/2 phosphorylation at 1 to 4 uM incubated for 24 hrs by Western blot analysis. The format is cell-based.
The target of data set [12] is Signal transducer and activator of transcription 3 (Homo sapiens) (UniProt P40763). Put plainly: Inhibition of STAT3 in human MDA-MB-231 cells assessed as decrease in cyclin D1 protein expression incubated for 24 hrs by Western blot analysis. Type of data set: cell-based.
Data set [13] deals with 4T1. Nature of the data set: Antitumor activity against mouse 4T1 cells implanted in BALB/c mouse assessed as reduction in tumor volume at 10 mg/kg, ip for 14 days. To be noted: 4T1, ip, 336 h. The format is functional.
The subject of data set [14] is 4T1. Nature of the data set: Reduction in STAT3 phosphorylation at Tyr705 residue in mouse 4T1 cells implanted in BALB/c mouse at 10 to 20 mg/kg, ip for 14 days by Western blot analysis. The format is functional, organism-based.

The inhibition in vivo is how much of the control response was suppressed.

Chain of Signal transducer and activator of transcription 3 (Homo sapiens) (P40763 whole entry): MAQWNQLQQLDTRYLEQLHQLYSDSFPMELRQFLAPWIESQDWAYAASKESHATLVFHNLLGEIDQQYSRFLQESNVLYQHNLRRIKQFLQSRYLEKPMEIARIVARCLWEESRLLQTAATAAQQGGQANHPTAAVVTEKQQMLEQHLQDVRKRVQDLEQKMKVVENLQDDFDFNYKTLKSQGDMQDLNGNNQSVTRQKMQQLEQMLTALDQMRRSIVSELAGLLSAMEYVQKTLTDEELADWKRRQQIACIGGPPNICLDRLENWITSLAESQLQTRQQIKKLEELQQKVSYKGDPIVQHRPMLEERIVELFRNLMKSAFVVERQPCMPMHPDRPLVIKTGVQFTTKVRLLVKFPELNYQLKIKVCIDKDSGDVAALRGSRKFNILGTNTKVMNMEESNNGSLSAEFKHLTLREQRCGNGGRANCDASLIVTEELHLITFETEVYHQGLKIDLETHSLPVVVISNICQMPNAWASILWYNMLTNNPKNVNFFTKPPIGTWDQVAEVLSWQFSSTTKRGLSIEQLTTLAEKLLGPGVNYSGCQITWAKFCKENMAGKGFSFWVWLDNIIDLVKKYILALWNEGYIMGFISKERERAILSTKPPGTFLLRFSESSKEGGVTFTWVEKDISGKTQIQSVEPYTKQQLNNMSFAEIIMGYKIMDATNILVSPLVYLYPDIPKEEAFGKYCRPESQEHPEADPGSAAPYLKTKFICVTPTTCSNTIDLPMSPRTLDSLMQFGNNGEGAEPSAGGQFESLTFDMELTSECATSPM
Chain of Proto-oncogene tyrosine-protein kinase Src (Homo sapiens) (P12931 2-536 limits assumed): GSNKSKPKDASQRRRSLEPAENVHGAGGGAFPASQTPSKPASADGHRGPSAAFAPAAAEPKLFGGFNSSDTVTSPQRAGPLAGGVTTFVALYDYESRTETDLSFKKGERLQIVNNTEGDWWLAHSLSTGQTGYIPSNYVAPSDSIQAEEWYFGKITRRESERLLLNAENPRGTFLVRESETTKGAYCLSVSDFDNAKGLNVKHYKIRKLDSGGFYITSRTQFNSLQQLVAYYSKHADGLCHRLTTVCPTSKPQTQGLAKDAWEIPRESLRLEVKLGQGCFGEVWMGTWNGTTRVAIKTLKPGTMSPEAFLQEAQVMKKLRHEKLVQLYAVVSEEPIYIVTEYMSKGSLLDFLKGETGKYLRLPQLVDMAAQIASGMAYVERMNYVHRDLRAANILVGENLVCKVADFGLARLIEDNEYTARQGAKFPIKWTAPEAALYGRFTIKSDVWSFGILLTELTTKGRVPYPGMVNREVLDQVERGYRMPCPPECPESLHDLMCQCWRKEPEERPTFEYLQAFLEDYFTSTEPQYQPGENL
Chain of Tyrosine-protein kinase JAK2 (Homo sapiens) (O60674 whole entry): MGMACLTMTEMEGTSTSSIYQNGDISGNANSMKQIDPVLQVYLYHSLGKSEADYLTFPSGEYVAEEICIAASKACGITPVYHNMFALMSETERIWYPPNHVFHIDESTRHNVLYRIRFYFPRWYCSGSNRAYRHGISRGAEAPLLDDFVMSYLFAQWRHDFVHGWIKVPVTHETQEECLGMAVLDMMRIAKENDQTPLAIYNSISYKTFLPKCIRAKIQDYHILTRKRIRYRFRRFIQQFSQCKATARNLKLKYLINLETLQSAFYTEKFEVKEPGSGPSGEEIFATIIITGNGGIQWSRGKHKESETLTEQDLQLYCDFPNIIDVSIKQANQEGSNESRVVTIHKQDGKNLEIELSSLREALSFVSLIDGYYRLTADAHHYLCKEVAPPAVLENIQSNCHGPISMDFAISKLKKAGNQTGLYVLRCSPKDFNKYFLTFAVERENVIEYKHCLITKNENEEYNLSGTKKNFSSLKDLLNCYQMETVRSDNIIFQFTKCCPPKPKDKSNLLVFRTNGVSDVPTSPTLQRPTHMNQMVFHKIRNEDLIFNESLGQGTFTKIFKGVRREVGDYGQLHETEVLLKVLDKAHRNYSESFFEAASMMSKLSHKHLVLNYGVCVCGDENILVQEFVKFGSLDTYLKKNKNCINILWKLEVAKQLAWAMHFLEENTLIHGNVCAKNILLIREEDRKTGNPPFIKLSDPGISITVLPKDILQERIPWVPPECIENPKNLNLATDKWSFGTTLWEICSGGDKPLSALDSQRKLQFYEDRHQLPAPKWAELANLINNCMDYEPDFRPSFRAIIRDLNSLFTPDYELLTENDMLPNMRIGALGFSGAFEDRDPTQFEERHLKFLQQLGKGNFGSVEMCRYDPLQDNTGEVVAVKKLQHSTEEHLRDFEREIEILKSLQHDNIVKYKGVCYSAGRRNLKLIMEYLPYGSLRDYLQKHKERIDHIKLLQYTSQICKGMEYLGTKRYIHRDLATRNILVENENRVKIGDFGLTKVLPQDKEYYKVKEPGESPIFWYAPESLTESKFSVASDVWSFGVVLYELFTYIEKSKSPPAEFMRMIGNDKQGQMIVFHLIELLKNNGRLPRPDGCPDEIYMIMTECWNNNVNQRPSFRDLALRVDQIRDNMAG
Chain of Mitogen-activated protein kinase; ERK1/ERK2 (Homo sapiens) (P27361 whole entry, looked up): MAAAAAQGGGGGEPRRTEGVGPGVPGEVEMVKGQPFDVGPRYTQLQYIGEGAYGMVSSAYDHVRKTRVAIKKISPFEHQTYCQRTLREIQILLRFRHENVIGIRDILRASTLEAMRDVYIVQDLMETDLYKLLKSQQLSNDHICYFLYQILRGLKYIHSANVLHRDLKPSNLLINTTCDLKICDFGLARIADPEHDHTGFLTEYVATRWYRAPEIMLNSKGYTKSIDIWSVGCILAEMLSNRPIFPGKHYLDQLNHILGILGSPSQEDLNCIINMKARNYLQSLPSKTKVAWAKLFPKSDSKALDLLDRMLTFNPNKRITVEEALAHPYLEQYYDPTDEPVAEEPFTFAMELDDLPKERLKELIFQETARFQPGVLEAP
Chain of Mitogen-activated protein kinase; ERK1/ERK2 (Homo sapiens) (P28482 whole entry, looked up): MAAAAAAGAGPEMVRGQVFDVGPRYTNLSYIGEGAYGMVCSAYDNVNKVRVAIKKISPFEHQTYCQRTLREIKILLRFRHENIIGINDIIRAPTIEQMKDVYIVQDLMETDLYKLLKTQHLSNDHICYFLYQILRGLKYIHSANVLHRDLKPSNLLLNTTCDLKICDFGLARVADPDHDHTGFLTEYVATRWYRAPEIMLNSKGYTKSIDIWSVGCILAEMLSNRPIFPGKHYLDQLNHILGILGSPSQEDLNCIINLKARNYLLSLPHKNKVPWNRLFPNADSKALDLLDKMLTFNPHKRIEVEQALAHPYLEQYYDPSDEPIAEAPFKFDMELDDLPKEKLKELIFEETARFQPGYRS

Regarding `CCN(CC)c1ccc2cc(C(=O)N3CCN(C(=O)C4=Cc5c(Br)cccc5S4(=O)=O)CC3)c(=O)oc2c1`, the selectivity ratio in [1] worked out at 12.4. The Activity is given as 1.2% in data set [2], 7.4% in data set [3], 15.6% in data set [5] and 2.1% in data set [6]. Besides, the viability at 4 µM in [4] was 77.5%. The Drug uptake result in data set [7] is recorded as “Active”. Further, the inhibition result in data set [8], in data set [9], in data set [10] and in [11] was “inactive” in each case. Also, the inhibition result in data set [12] was “Dose-dependent effect”. Also, the inhibition in vivo at 10 mg/kg in [13] stood at 52.3%. The inhibition result in [14] was “Active”.
